A word on the melting point: it is the temperature of the solid-liquid transition.

Where a name gives a salt, the structure may show the parent alone.

`COc1ccc(-c2ccc(NC(=O)C#Cc3ccc(CN4CCCCC4)cc3)cc2)cc1` [Example 1.8, 3-(4-piperidin-1-ylmethylphenyl)propynoic acid-(4′-methoxybiphenyl-4-yl)amide] came in with a melting point of 170 °C.

For the molecule `COc1ccc(-c2ccc(NC(=O)C#Cc3ccc(CN4CCC(Nc5ccccn5)CC4)cc3)cc2)cc1` [Example 1.11, 3-{4-[4-(pyridin-2-ylamino)piperidin-1-ylmethyl]phenyl}propynoic acid-(4′-methoxybiphenyl-4-yl)amide], the melting point lay within 196 to 197 °C.

`O=C(CCc1ccc(CNC2CC2)cc1)Nc1ccc(-c2ccc(Cl)cc2)cc1` (as salt: trifluoroacetate) [Example 6.43, N-(4′-chlorobiphenyl-4-yl)-3-(4-cyclopropylaminomethylphenyl)propionamide trifluoroacetate]: the melting point was 208 °C.

Take `CCN(CC)CCOc1ccc(NC(=O)C#Cc2c(Cl)cc(Cl)cc2Cl)cc1Cl` (as salt: hydrochloride) [Example 4.5, 3-(2,4,6-trichlorophenyl)propynoic acid-[3-chloro-4-(2-diethylaminoethoxy)phenyl]amide hydrochloride]: the melting point was 188 to 191 °C.

Molecule `CCN(CC)CCOc1ccc(NC(=O)C#Cc2ccc(Cl)cc2Cl)cc1` [Example 3.4, 3-(2,4-dichlorophenyl)propynoic acid-[4-(2-diethylaminoethoxy)phenyl]amide] gave a melting point of 107 to 109 °C.

In turn, `CC1(O)CCN(Cc2ccc(C#CC(=O)Nc3ccc(-c4ccc(Cl)cc4)cc3)cc2)CC1` [Example 1.37, 3-[4-(4-hydroxy-4-methylpiperidin-1-ylmethyl)phenyl]propynoic acid-(4′-chlorobiphenyl-4-yl)amide] gave a melting point of 192 to 193 °C.

Molecule `O=C(CCc1ccc(CN2CCC(CO)CC2)cc1)Nc1ccc(-c2ccc(Cl)cc2)cc1` [Example 6.6, N-(4′-chlorobiphenyl-4-yl)-3-[4-(4-hydroxymethylpiperidin-1-ylmethyl)phenyl]propionamide] yielded a melting point of 185 to 186 °C.

For the molecule `COCCN(Cc1ccc(/C=C/C(=O)Nc2ccc(-c3ccc(Cl)cc3)cc2)cc1)CC(C)(C)O` [Example 5.27, (E)-N-(4′-chlorobiphenyl-4-yl)-3-(4-{[(2-hydroxy-2-methylpropyl)-(2-methoxyethyl)amino]methyl}phenyl)acrylamide], the melting point lay in the range of 125 to 126 °C.

Take `NC1(c2ccc(C#CC(=O)Nc3ccc(-c4ccc(Cl)cc4)cc3)cc2)CC1` (as salt: trifluoroacetate) [Example 1.422, 3-[4-(1-aminocyclopropyl)phenyl]propynoic acid-(4′-chlorobiphenyl-4-yl)amide trifluoroacetate]: the melting point is 160 to 164 °C.

`CN(Cc1ccc(CCC(=O)Nc2ccc(-c3ccc(Cl)cc3)cc2)cc1)Cc1cccnc1` [Example 6.33, N-(4′-chlorobiphenyl-4-yl)-3-{4-[(methylpyridin-3-ylmethylamino)methyl]phenyl}propionamide]: the melting point fell in the range of 168 to 169 °C.

With `COC1CCN(Cc2ccc(NC(=O)C#Cc3ccc(-c4ccc(Cl)cc4)cc3)cc2)CC1` [Example 3.13, 3-(4′-chlorobiphenyl-4-yl)propynoic acid-[4-(4-methoxypiperidin-1-ylmethyl)phenyl]amide], the melting point was 227 to 234 °C.

`COc1cc(NC(=O)C#Cc2ccc(C(F)(F)F)cc2Cl)ccc1OCCN1CCOCC1` [Example 4.273, 3-(2-chloro-4-trifluoromethylphenyl)propynoic acid-[3-methoxy-4-(2-morpholin-4-ylethoxy)phenyl]amide] registered a melting point of 209 to 211 °C.

Molecule `CN(C(=O)C#Cc1ccc(CN2CCC(N3CCCC3)CC2)cc1)c1ccc(-c2ccc(Cl)cc2)cc1` (as salt: trifluoroacetate) [Example 1.24, 3-[4-(4-pyrrolidin-1-ylpiperidin-1-ylmethyl)phenyl]propynoic acid-(4′-chlorobiphenyl-4-yl)methylamideditrifluoroacetate] showed a melting point of 161 to 164 °C.

Regarding `O=C(/C=C/c1ccc(CN(CCO)C2CCCCC2)cc1)Nc1ccc(-c2ccc(Cl)cc2)cc1` [Example 5.38, (E)-N-(4′-chlorobiphenyl-4-yl)-3-(4-{[cyclohexyl-(2-hydroxyethyl)amino]methyl}phenyl)acrylamide], the melting point was 178 to 179 °C.

As to `O=C(C#Cc1ccc(CNCCC2CCCCC2)cc1)Nc1ccc(-c2ccc(Cl)cc2)cc1` [Example 1.52, 3-{4-[(cyclohexylethylamino)methyl]phenyl}propynoic acid-(4′-chlorobiphenyl-4-yl)amide], the melting point was 156 to 157 °C.

As to `O=C(CCc1ccc(CNCC2CCCCC2)cc1)Nc1ccc(-c2ccc(Cl)cc2)cc1` [Example 6.22, N-(4′-chlorobiphenyl-4-yl)-3-{4-[(cyclohexylmethylamino)methyl]phenyl}propionamide], the melting point was in the range of 201 to 204 °C.

`CC1(O)CCN(Cc2ccc(CCC(=O)Nc3ccc(-c4ccc(Cl)cc4)cc3)cc2)CC1` [Example 6.9, N-(4′-chlorobiphenyl-4-yl)-3-[4-(4-hydroxy-4-methylpiperidin-1-ylmethyl)phenyl]propionamide] showed a melting point of 192 °C.

For `CN(Cc1ccc(CCC(=O)Nc2ccc(-c3ccc(Cl)cc3)cc2)cc1)CC1CCOCC1` [Example 6.19, N-(4′-chlorobiphenyl-4-yl)-3-(4-{[methyl-(tetrahydropyran-4-ylmethyl)amino]methyl}phenyl)propionamide], the melting point lay within 162 to 163 °C.

`O=C(C#Cc1ccc(-c2ccccc2)cc1Cl)Nc1ccc(CN2CCCCC2)cc1` (as salt: hydrochloride) [Example 3.33, 3-(3-chlorobiphenyl-4-yl)propynoic acid-(4-piperidin-1-ylmethylphenyl)amide hydrochloride] yielded a melting point of 260 to 265 °C.

`COc1cc(NC(=O)C#Cc2ccc(C(F)(F)F)cc2Cl)ccc1OCCN1CCC(OC)CC1` [Example 4.274, 3-(2-chloro-4-trifluoromethylphenyl)propynoic acid-{3-methoxy-4-[2-(4-methoxypiperidin-1-yl)ethoxy]phenyl}amide] had a melting point of 195 to 197 °C.

`O=C(/C=C/c1ccc(CN2CCC3(CCCC3)CC2)cc1)Nc1ccc(-c2ccc(Cl)cc2)cc1` [Example 5.25, (E)-3-[4-(8-azaspiro[4.5]dec-8-ylmethyl)phenyl]-N-(4′-chlorobiphenyl-4-yl)acrylamide] gave a melting point of 250 °C.

In the case of `O=C(/C=C/c1ccc(CNCC2CCCCC2)cc1)Nc1ccc(-c2ccc(Cl)cc2)cc1` [Example 5.21, (E)-N-(4′-chlorobiphenyl-4-yl)-3-{4-[(cyclohexylmethylamino)methyl]phenyl}acrylamide], the melting point was in the range of 262 to 263 °C.

The molecule `O=C(/C=C/c1ccc(CN2CCC(N3CCCCC3)C2)cc1)Nc1ccc(-c2ccc(Cl)cc2)cc1` (stereo not drawn) [Example 5.28, (E)-N-(4′-chlorobiphenyl-4-yl)-3-[4-(3-piperidin-1-ylpyrrolidin-1-ylmethyl)phenyl]acrylamide] showed a melting point of 209 to 210 °C.

For `O=C(CCc1ccc(CN2CCCC2)cc1)Nc1ccc(-c2ccc(Cl)cc2)cc1` [Example 6.11, N-(4′-chlorobiphenyl-4-yl)-3-(4-pyrrolidin-1-ylmethylphenyl)propionamide], the melting point was in the range of 183 to 184 °C.
